Measurements as given in patent US8586611B2 (priority 2005, dated 2013).

Key:
Type in all cases: in vivo
Phytophthora infestans [1] = assay: whole plant or invertebrate; conditions: tomato late blight, spray the day before inoculation
[2] = tested on: Erysiphe graminis f. sp. tritici; assay: Test E: wheat powdery mildew, spray the day before inoculation (disease rating, 100 = 100% disease control); conditions: spray the day before inoculation
In short: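 Wheat seedlings sprayed to run-off with compound suspended in acetone/water 50/50 with 250 ppm Trem 014 (200 ppm equivalent to 500 g/ha); inoculated next day with Erysiphe graminis f. sp. tritici spore dust. Kept 7 days at 20° C, then rated 0–100% disease control versus controls.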

Plasmopara viticola = assay: Test B: grape downy mildew, spray 24 h after inoculation (disease rating, 100 = 100% disease control); conditions: spray 24 h after inoculation
In short: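 Grape seedlings were inoculated with Plasmopara viticola and held 24 h saturated at 20 °C, then sprayed to run-off with compound suspension (acetone/water with 250 ppm Trem 014; 200 ppm ≈ 500 g/ha). After 5 days at 20 °C and 24 h saturation, disease was rated from 0 to 100% control versus untreated.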

Phytophthora infestans [3] = assay: whole plant or invertebrate; conditions: tomato late blight, spray 17 h after inoculation
[4] = compounds without asterisk (not 40 or 10 ppm)

Row | Structure (SMILES) | Test C disease rating (100 = 100% disease control, 0 = no disease control) (Phytophthora infestans [1]; [4]) | Test E disease rating (100 = 100% disease control, 0 = no disease control) [2, 4] | Test B disease rating (100 = 100% disease control, 0 = no disease control) (Plasmopara viticola; [4]) | Test D disease rating (100 = 100% disease control, 0 = no disease control) (Phytophthora infestans [3]; [4]) | Test C disease rating (100 = 100% disease control, 0 = no disease control) (Phytophthora infestans [1]; tested at 10 ppm) | Test E disease rating (100 = 100% disease control, 0 = no disease control) ([2]; tested at 10 ppm) | Test B disease rating (100 = 100% disease control, 0 = no disease control) (Plasmopara viticola; tested at 10 ppm) | Test D disease rating (100 = 100% disease control, 0 = no disease control) (Phytophthora infestans [3]; tested at 10 ppm) | also measured
1 | Cc1ccc(C)c(CC(=O)N2CCC(c3nc(C(=O)N(C)C4CCOc5ccccc54)cs3)CC2)c1 (centres unmarked) [compound 137] | 51% | 0% | 100% | 93% | – | – | – | – | –
2 | Cc1ccc(C)c(CC(=O)N2CCC(c3nc(C(=O)N(C)C4COc5ccccc54)cs3)CC2)c1 (centres unmarked) [compound 138] | 100% | 44% | 91% | 37% | – | – | – | – | –
3 | CC(C)c1nccn1CC(=O)N1CCC(c2nc(C(=O)N(C)[C@H](C)c3ccccc3)cs2)CC1 [compound 139] | 0% | 0% | 0% | 0% | – | – | – | – | –
4 | C[C@H](c1ccccc1)N(C)C(=O)c1csc(C2CCN(C(=O)Cn3cnc(C4CCCCC4)n3)CC2)n1 [compound 140] | 0% | 0% | 0% | 0% | – | – | – | – | –
5 | C[C@H](c1ccccc1)N(C)C(=O)c1csc(C2CCN(C(=O)Cn3cnc(C(C)(C)C)c3)CC2)n1 [compound 141] | 0% | 0% | 0% | 0% | – | – | – | – | –
6 | CCC(C)c1cc(C)n(CC(=O)N2CCC(c3nc(C(=O)N(C)[C@H](C)c4ccccc4)cs3)CC2)n1 (some centres unmarked) [compound 142] | 0% | 87% | 0% | 0% | – | – | – | – | –
7 | COc1ccccc1NC(=O)N1CCC(c2nc(C(=O)N(C)[C@H](C)c3ccccc3)co2)CC1 [compound 157] | 100% | 0% | 63% | 91% | – | – | – | – | –
8 | CN(Cc1cccnc1)C(=O)c1csc(C2CCN(C(=O)Cc3cccc(C(F)(F)F)c3)CC2)n1 [compound 163] | 55% | 0% | 24% | 0% | – | – | – | – | –
9 | Cc1cccc(CC(=O)N2CCC(c3nc(C(=O)N(C)Cc4cccnc4)cs3)CC2)c1 [compound 164] | 60% | 0% | 1% | 0% | – | – | – | – | –
10 | Cc1cccc(CC(=O)N2CCC(c3nc(C(=O)N(C)Cc4ccccn4)cs3)CC2)c1 [compound 165] | 14% | 0% | 11% | 0% | – | – | – | – | –
11 | Cc1ccc(C)c(CC(=O)N2CCC(c3nc(C(=O)N(C)[C@H](C)C4CCCCC4)cs3)CC2)c1 [compound 166] | 68% | 0% | 34% | 16% | – | – | – | – | –
12 | CN(Cc1ccccn1)C(=O)c1csc(C2CCN(C(=O)Cc3cccc(C(F)(F)F)c3)CC2)n1 [compound 168] | 8% | 0% | 15% | 0% | – | – | – | – | –
13 | CN(Cc1ccncc1)C(=O)c1csc(C2CCN(C(=O)Cc3cccc(C(F)(F)F)c3)CC2)n1 [compound 169] | 68% | 0% | 8% | 0% | – | – | – | – | –
14 | Cc1cccc(CC(=O)N2CCC(c3nc(C(=O)N(C)Cc4ccncc4)cs3)CC2)c1 [compound 170] | 29% | 0% | 7% | 0% | – | – | – | – | –
15 | Cc1cc(C(F)(F)F)nn1CC(=O)N1CCC(c2nc(C(=O)N(C)C3CCOc4ccccc43)cs2)CC1 (centres unmarked) [compound 179] | – | – | – | – | 100% | 0% | 96% | 87% | –
16 | Cc1cc(C(F)(F)F)nn1CC(=O)N1CCC(c2nc(C(=O)N(C)C3CCSc4ccccc43)cs2)CC1 (centres unmarked) [compound 180] | – | – | – | – | 100% | 0% | 47% | 92% | –
17 | Cc1cc(C(F)(F)F)nn1CC(=O)N1CCC(c2nc(C(=O)N(C)C3CCCCc4ccccc43)cs2)CC1 (centres unmarked) [compound 181] | – | – | – | – | 100% | 0% | 73% | 98% | –
18 | Cc1cc(C(F)(F)F)nn1CC(=O)N1CCC(c2nc(C(=O)N(C)C3CCCc4sccc43)cs2)CC1 (centres unmarked) [compound 182] | – | – | – | – | – | – | – | – | Test C disease rating (100 = 100% disease control, 0 = no disease control) (Phytophthora infestans [1]; tested at 40 ppm): 100%; Test E disease rating (100 = 100% disease control, 0 = no disease control) ([2]; tested at 40 ppm): 0%; Test B disease rating (100 = 100% disease control, 0 = no disease control) (Plasmopara viticola; tested at 40 ppm): 99%; Test D disease rating (100 = 100% disease control, 0 = no disease control) (Phytophthora infestans [3]; tested at 40 ppm): 98%
19 | Cc1cc(C(F)(F)F)nn1CC(=O)N1CCC(c2nc(C(=O)N(C)C3CCCc4occc43)cs2)CC1 (centres unmarked) [compound 183] | – | – | – | – | 40% | 0% | 0% | 16% | –
20 | Cc1cc(C(F)(F)F)nn1CC(=O)N1CCC(c2nc(C(=O)N(C)C3COc4ccccc43)cs2)CC1 (centres unmarked) [compound 184] | – | – | – | – | 99% | 0% | 77% | 76% | –
21 | Cc1cc(C(F)(F)F)nn1CC(=O)N1CCC(c2nc(C(=O)N(C)C3CSCc4ccccc43)cs2)CC1 (centres unmarked) [compound 185] | – | – | – | – | 100% | 0% | 99% | 98% | –
22 | Cc1cc(C(F)(F)F)nn1CC(=O)N1CCC(c2nc(C(=O)N(C)C3CCCCC3c3ccccc3)cs2)CC1 (centres unmarked) [compound 186] | – | – | – | – | 97% | 0% | 0% | 58% | –
23 | Cc1cc(C(F)(F)F)nn1CC(=O)N1CCC(c2nc(C(=O)N(C)C3CCCc4c(O)cccc43)cs2)CC1 (centres unmarked) [compound 189] | 100% | 0% | 93% | 99% | – | – | – | – | –
